Patent publication US20040018501A1, “Methods and systems for analyzing complex biological systems” (priority 2001, published 2004)

System: Saccharomyces cerevisiae wild type strain BY4743
Assay: AF1 yeast metabolite analysis by GC-MS and LC-MS
Type: cell-based

OC(Cn1cncn1)(Cn1cncn1)c1ccc(F)cc1F [Fluconazole]
Fold Change of TMS mevalonic acid lactone (GC): 0.1434
Fold Change of squalene (GC): 0.1999
Fold Change of tetradecanoic acid (GC): 0.07967
Fold Change of threonine2 (GC): 0.5053
Fold Change of threonine3 (GC): 0.2513
Fold Change of tms glutamine3 (GC): 0.7271
Fold Change of tms lysine4 (GC): 0.3657
Fold Change of tms tyrosine2 (GC): 0.8643
Fold Change of tms tyrosine3 (GC): 0.3321
Fold Change of valine (GC): 0.2727
Fold Change of retinoic acid (nLC): 0
Fold Change of salicylic/HObenzoic (nLC): 0
Fold Change of selenoDLmethionine (nLC): −0.5748
Fold Change of serine (nLC): 0.3936
Fold Change of shikimic acid (nLC): 0
Fold Change of sinapinic acid (nLC): 0
Fold Change of sorbitol/mannitol (nLC): 0.365
Fold Change of succinic (nLC): 0.3094
Fold Change of sucrose (nLC): 0.3104
Fold Change of sugar-phosphate (nLC): −0.05306
Fold Change of tetradecanoic acid (nLC): 0.5495
Fold Change of threonine/homoserin (nLC): 0.3257
Fold Change of thymine (nLC): 0
Fold Change of tryptophan (nLC): 1.649
Fold Change of tyrosine (nLC): 0.2303
Fold Change of uracil (nLC): 1.256
Fold Change of uridine (nLC): 0.3463
Fold Change of urocanic acid (nLC): 0
Fold Change of valine (nLC): 0.3235
Fold Change of xanthosineDiH2O (nLC): 0
Fold Change of zeatin (nLC): 0
Fold Change of riboflavin (pLC): 0
Fold Change of selenoDLmethionine (pLC): −0.6865
Fold Change of serine (pLC): 0.11
Fold Change of sugar-phosphate (pLC): 0
Fold Change of thiamine (pLC): 0
Fold Change of threonine/homoserin (pLC): 0.1604
Fold Change of thymine (pLC): 0
Fold Change of tryptophan (pLC): 0
Fold Change of tyrosine (pLC): 0.1099
Fold Change of uric acid (pLC): 0
Fold Change of urocanic acid (pLC): 0
Fold Change of xanthosine(diH2O) (pLC): 0
Fold Change of zeatin (pLC): 0
Fold Change of campesterol (platform GC): 0
Fold Change of desmosterol (platform GC): 0
Fold Change of octadecanoic acid (platform GC): 0.082
Fold Change of abscisic acid (platform LC): 0
Fold Change of adenosine (platform LC): 0
Fold Change of 4-methylcatechol (platform nLC): 0
Fold Change of 5hydroxyLtryptophan (platform nLC): 0
Fold Change of 6-benzylaminopurine (platform nLC): 0
Fold Change of NacetylDglucosamine (platform nLC): 0
Fold Change of NacetylLornithine (platform nLC): 0
Fold Change of abscisic acid (platform nLC): 0
Fold Change of adenine (platform nLC): 0
Fold Change of adenosine (platform nLC): 0
Fold Change of anthranilic acid (platform nLC): 0
Fold Change of argininosuccinate (platform nLC): 0
Fold Change of benzoic acid (platform nLC): 0
Fold Change of catechol (platform nLC): 0
Fold Change of cinnamic acid (platform nLC): 0
Fold Change of citricanoic/itaconi (platform nLC): 0
Fold Change of citrulline (platform nLC): 0
Fold Change of coumaric acid (platform nLC): 0
Fold Change of cytosine (platform nLC): 0
Fold Change of diaminopimelic acid (platform nLC): 0
Fold Change of dihydrofolic acid (platform nLC): 0
Fold Change of estrone (platform nLC): 0
Fold Change of farnesol (platform nLC): 0
Fold Change of folic acid (platform nLC): 0
Fold Change of gibberellic (platform nLC): 0
Fold Change of glutamine/lysine (platform nLC): 0.3309
Fold Change of guanine (platform nLC): 0
Fold Change of histidine (platform nLC): 0
Fold Change of homogentisic/uric (platform nLC): 0
Fold Change of hydrocortisone (platform nLC): 0
Fold Change of indole3pyruvic acid (platform nLC): 0
Fold Change of jasmonic acid (platform nLC): 0
Fold Change of kinetin (platform nLC): 0
Fold Change of luteolin (platform nLC): 0
Fold Change of malonic acid (platform nLC): 0
Fold Change of methionine (platform nLC): 0
Fold Change of orotic acid (platform nLC): 0
Fold Change of phenylpyruvic acid (platform nLC): 0
Fold Change of phosphoenolpyruvate (platform nLC): 0
Fold Change of pinitol (platform nLC): 0
Fold Change of porphobilinogen (platform nLC): 0
Fold Change of 4-aminobenzoic acid (platform pLC): 0
Fold Change of 4-methylcatechol (platform pLC): 0
Fold Change of 5hydroxyLtryptophan (platform pLC): 0
Fold Change of 6benzylaminopurine (platform pLC): 0
Fold Change of NacetylDglucosamine (platform pLC): 0
Fold Change of NacetylLglutamate (platform pLC): 0
Fold Change of allantoic acid (platform pLC): 0
Fold Change of anthranilic acid (platform pLC): 0
Fold Change of argininosuccinate (platform pLC): 0
Fold Change of biotin (platform pLC): 0
Fold Change of caffeine (platform pLC): 0
Fold Change of citric acid TME (platform pLC): 0
Fold Change of cytidine (platform pLC): 0
Fold Change of cytosine (platform pLC): 0
Fold Change of diaminopimelic acid (platform pLC): 0
Fold Change of dihydrofolic acid (platform pLC): 0
Fold Change of dipicolinic acid (platform pLC): 0
Fold Change of folic acid (platform pLC): 0
Fold Change of glucosamine (platform pLC): 0
Fold Change of glucosamine6PO4 (platform pLC): 0
Fold Change of histidine (platform pLC): 0
Fold Change of hydrocortisone (platform pLC): 0
Fold Change of itaconic acid dimes (platform pLC): 0
Fold Change of kinetin (platform pLC): 0
Fold Change of luteolin (platform pLC): 0
Fold Change of niacinamide (platform pLC): 0
Fold Change of nopaline (platform pLC): 0
Fold Change of phosphoenolpyruvate (platform pLC): 0
Fold Change of progesterone (platform pLC): 0
